Consider 11 molecules from patent EP0705258B1, “AZOLYL-CYCLIC AMINE DERIVATIVES WITH IMMUNOMODULATORY ACTIVITY” (Knoll AG, priority 1993, dated 1995).

In assay [1] the test system is Zymosan Stimulated Macrophages. The assay is described as follows: Inhibition of Arachidonic Acid Release from Zymosan Stimulated Macrophages (Test D). It is filed as cell-based, MF1 mice. The note with it: Mus musculus, Macrophage, tested at 100, 50, 20, 10, 5 and 1 µM. As for the experimental part: Female MF1 mice (weighing 20 to 25 g) were killed using a rising concentration of CO2. The mice were laid on their backs and the abdomens wiped with 70% alcohol. The skin was pulled back, exposing the peritoneal wall. Medium A (5 ml) (see below) was injected into the peritoneal cavity of each mouse followed by approximately 1 ml of air using a 20 ml syringe and a 21G x 40 mm needle in order to form a suspension of macrophage cells. The medium and cells were then removed using a 19G x 40 mm needle. The resulting suspension was returned to a sterile beaker kept on ice. The extracts from all the mice were pooled and this pooled cell suspension was counted using a Coulter counter and adjusted to a final cell count of 1 - 1.3 x 10^6 cells/ml prior to labelling with [^3H]-arachidonic acid. Typically five mice provided sufficient cells for each multiwell plate. Sufficient [^3H]arachidonic acid in ethanol to give a final concentration of 1.6 µCi/ml (equivalent to 40 µCi/plate) was blown to dryness under nitrogen. The arachidonic acid was then resuspended in 1 or 2 ml of the cell suspension which was then mixed with the remainder of the cell suspension in a centrifuge bottle. The labelled cell suspension was then plated out into sterile plastic 96 flat-bottomed well plates (250 µl per well) and incubated overnight at 37°C in a moist atmosphere of 5% CO2, 95% air. The following day, non-adherent cells were removed by washing 3 times with sterile phosphate buffered saline (PBS). The adherent peritoneal macrophages were then cultured for a further 24 hours in the presence or absence of drugs, in medium B (see below) at 37° in a 5% CO2 atmosphere in order to measure the effects of drugs on the spontaneous release of arachidonic acid in the absence of stimulus. After this incubation, supernatants were removed to give media 1 and stored in sealed multi-well plates at 4°C prior to scintillation counting. Drugs which potentiated spontaneous release of arachidonic acid (125% of controls) were deemed to be toxic at the concentration at which this phenomenon occurred. The supernatants were replaced by fresh medium C containing fresh drug and a stimulus. Three drugs were tested at six concentrations (100, 50, 20, 10, 5 and 1 µM) in replicates of four on each plate. The other wells contained controls consisting of a positive control (e.g. dexamethasone), medium (B) only and medium C only. Incubation was then continued for a further 5 hours, whereupon the supernatants were collected to give media 2 and the adherent cells washed with PBS. The cells were then lysed with 100 µl of 0.1% TRITON® X100 in a 0.1% solution of bovine serum albumin in 0.9% saline and mechanically disrupted to give cell lysates. These supernatants (media 2) and cell lysates (Cells) were also stored in sealed multi-well plates at 4°C prior to scintillation counting. 200 µl aliquots of media, or 100 µl aliquots of cells were counted using 2 ml of OPTIPHASE "HIGH SAFE" (Trademark of LKB) as scintillant. […] The value for the arachidonic acid release in the absence of stimulus (spontaneous, cpm of media 2) from cells which had been exposed to neither stimulus nor drug was subtracted from all equivalent values (cpm media 2, stimulated with or without drug) to give the net stimulated release. The percentage inhibition of arachidonic acid release caused by a drug may then be calculated using the following equation. % Inhibition = 100 -(net stimulated release in presence of drug x 100)/(net stimulated release in absence of drug) [formula] […] The zymosan stimulant was prepared as follows:- zymosan (200mg) (supplied by Sigma) was added to PBS (20ml). The mixture was boiled for 30 minutes and the volume restored to 20ml with water. The zymosan was harvested by centrifugation at 500Xg for 5 minutes, washed twice by resuspension in PBS (10ml) and centrifugation. After the final separation, the zymosan was resuspended in 20ml PBS and stored as lml aliquots at -20°C. […]

The subject of assay [2] is tumour necrosis factor-α (TNF-α). The assay can be described thus: Mouse Tumour Necrosis Factor Test (Test B), mouse endotoxin shock model, serum TNF-α by ELISA. As to conditions: Mus musculus; minimum effective oral dose giving significant reduction in serum TNF-α of ≥35%; dosed 2 h before LPS i.p.; ≤ = active at dose given but not tested at lower doses; read-out: MTNF:MED. It is filed as in vivo, BALB/c mice. The source says: Preferred compounds of the present invention are active in an in-vivo test which determines the ability of the compounds to inhibit the release of tumour necrosis factor-α (TNF-α) in a mouse endotoxin shock model (Test B). This model is similar to that described by Zuckerman and Bendele (1989), Infection and Immunity 57 (10): p3009-3013.
Each compound of formula I was combined with a carrier of a solution of 1.5% v/v sorbitan esters under the trade name Tween 80 and 0.25% v/v cellosize in sterile water (100 µl) and was administered orally to a group of four BALB/c mice. The concentration of compound was such as to provide dosages selected from 100, 30, 10, 3, 1, 0.1 and 0.03 mg/kg. Two hours after such oral administration, lipopolysaccharide (LPS) (E. coli 0127:B8) (100 µg) in sterile water (0.2 ml) was administered intraperitoneally to the test mice.
A control group of eight BALB/c mice was treated in a similar manner as the test group except that no test compound was included with the carrier.
One hour after LPS administration the mice were killed and blood was collected by cardiac puncture. The blood was incubated at 20°C for 2 hours and the serum was separated from the clotted blood following centrifugation. Serum tumour necrosis factor-α (TNF-α) levels were assayed by an enzyme-linked immunosorbent assay (ELISA) and the concentration of TNF-α in each of the drug-treated groups was compared with the control group by one-way analysis of variance followed by a multiple t-test.
The ELISA was carried out by coating a 96-well vinyl assay plate (Costar) overnight at 4°C with 50 µl per well of 2 µg/ml hamster anti-mouse TNF monoclonal antibody in 0.1M sodium hydrogen carbonate buffer at pH 8.2. After washing the plate with phosphate buffered saline (PBS) containing 0.05% v/v sorbitan esters under the trade name Tween 20 (wash buffer), a blocking/dilution buffer (10% sheep serum in PBS containing 0.1% v/v sorbitan esters under the trade name Tween 20 (200 µl)) was aliquoted to each well and incubated at 37°C for 0.5 hours. After aspirating the blocking buffer, the serum samples and pure TNF (as a standard) diluted in blocking/dilution buffer, were added to the wells and incubated at 37°C for 2 hours. After washing with the wash buffer, a polyclonal rabbit anti-mouse TNF-α antibody in blocking/dilution buffer (100 µl of a 1 in 10,000 dilution) was added and incubated for a further 1.5 hours at 37°C. After further washes, anti-rabbit IgG peroxidase conjugate (100 µl of a 1 in 4000 dilution) was added and incubated at 37°C for 0.5 hours. After further washing, the substrate solution (100 µl per well of 0.1 mg/ml 3,3', 5,5'-tetramethylbenzidine dihydrochloride in 0.1M phosphate citrate buffer, pH 5.0, to which 2 µl of 30% hydrogen peroxide per 10 ml was added just before use) was added and the colour allowed to develop. The reaction was stopped by the addition of 1M sulphuric acid (25 µl) and the optical density read in a multichannel spectrophotometer at 450 nm. The mean TNF-α concentration was determined by comparison with the standard curve and the mean TNF-α concentration for each group compared with that produced by the control group. Drug treatments which cause a statistically significant reduction in TNF-α concentration of ≥35% at a single dose at 100 mg/kg or less were considered active.

The subject of assay [3] is lymphocyte proliferation (BALB/c responder and mitomycin C treated C57BL/6 stimulator spleen cells). The assay is described as follows: Mixed Lymphocyte Reaction (Test A), one-way MLR, tritiated thymidine incorporation. It is filed as cell-based, mice. The note with it: Mus musculus; concentration causing 50% inhibition of lymphocyte proliferation, by linear interpolation; ≤ = active at this concentration but not tested at lower doses. As for the experimental part: A mixed lymphocyte reaction (MLR) occurs when lymphocytes from two genetically dissimilar individuals, or inbred strains of mice are cultured together. An MLR results in the activation and proliferation of lymphocytes, which is measured by the incorporation of radiolabelled thymidine into the cellular DNA synthesised during cell division. A 'one-way' MLR is used to determine the immunosuppressive activity of test compounds in vitro. In this reaction one population of spleen cells serves as the stimulator cells and is treated with mitomycin C to prevent cell division. Spleen cells from a second allogeneic population (responder cells) are untreated and when mixed with the stimulator cells are able to undergo division which is measured. The degree of proliferation is measured in the presence and absence of test compound to assess the immunosuppressive activity of the compound.
The techniques for carrying out lymphocyte proliferation assays including MLRs are well known, eg Bradley, pages 156-166, in Mishell and Shiigi, Eds. Selected Methods in Cellular Immunology (Freeman, San Francisco, 1980); and Battisto et al, methods in Enzymology 1987; 150: 83-91. Various slight modifications of these techniques are in use and that used herein is described in Gibb, Webber and Bowen, J Immunological Methods 1985; 81: 107-113.
Cell suspensions obtained from the spleens of female BALB/c and C57BL/6 strain mice of between 6 and 9 weeks of age were used as sources of responder and stimulator cells respectively. The mice were killed using a rising concentration of CO2 and the spleens removed aseptically and teased using a scalpel and forceps to produce a single cell suspension in Hanks balanced salt solution (HBSS). The suspensions were filtered through cell strainers (Falcon), sedimented by centrifugation and resuspended in Tris-buffered ammonium chloride pH 7.2 (medium D) to lyse the erythrocytes. The cells were sedimented again and washed twice in HBSS before resuspending in complete RPMI 1640 tissue culture medium (medium E). The C57BL/6 cells were resuspended to 9 mls per spleen and a solution of mitomycin C at 400 µg/ml in medium E added to give a final concentration of 40 µg/ml. After incubation of the C57BL/6 cells at 37°C for 30 minutes in an atmosphere of 5% CO2 and 95% air, the cells were sedimented and washed 3 times in medium E. Both cell suspensions were diluted in medium E to 5 x 10^6 cells/ml. 100µl of each of the responder and stimulator cell suspensions were aliquoted into the wells of 96 well flat bottom microtitre plates containing 50 µl of test compound at an appropriate dilution (initially 50 µM diluted in medium E from a stock solution at 100 mM in dimethyl sulphoxide) giving a final test compound concentration of 10 µM (final dilution). Compounds active at this concentration were tested at further final dilution of 1 µM, 0.1 µM and 0.01 µM and 0.001 µM to determine the concentration of test compound which causes 50% inhibition of the immune response (IC50). After four days of culture at 37°C in a humidified atmosphere of 5% CO2 and 95% air, 1 µCi of tritiated thymidine in 20 µl of medium E was added to each well and the plates incubated for a further 24 hours. Cells were then harvested onto Inotech G7 glass fibre filter mats using an Inotech cell harvester. The filters were transferred to vials to which 2 ml of Packard Emulsifier-Safe scintillation fluid was added and the radioactivity from the incorporated thymidine was counted in a Packard liquid scintillation counter. The counts per minute (CPM) reflect the degree of lymphocyte proliferation. The data were analysed to determine the percentage inhibition of lymphocyte proliferation by the test compound. […]
Background: Dividing cells build labelled thymidine or BrdU into new DNA.

Where a name gives a salt, the structure may show the parent alone.

A word on the IC50: it is the concentration at which inhibition is half-maximal. Take `O=C(CCCN1CCC(CCn2ccnc2)CC1)c1ccccc1` [Example 88, 4-[2-(Imidazol-1-yl)ethyl]-1-(4-oxo-4-phenylbutyl)piperidine]: the IC50 in assay [1] stood at 52 µM. Moreover, in assay [2], the minimal effective dose is not above 30 mg/kg.
`c1ccc(CCCC2CCN(CCn3ccnc3)CC2)cc1` [Example 96, 1-[2-(imidazol-1-yl)ethyl]-4-(3-phenylpropyl)piperidine, dihydrochloride monohydrate]: the concentration for half-maximal inhibition (IC50) came out at 0.01 µM in assay [3] and 34 µM in assay [1].
In assay [3], `c1ccc(CCCN2CCC(CCCn3ccnc3)CC2)cc1` [Example 104, 4-[3-(Imidazol-1-yl)propyl]-1-(3-phenylpropyl)piperidine] displayed an IC50 not above 1 µM. Besides, the minimal effective dose in assay [2] was not above 100 mg/kg.
In the case of `CC(C)c1nccn1CCC1CCN(CCCc2ccccc2)CC1` [Example 106, 4-[2-(2-Isopropylimidazol-1-yl)ethyl]-1-(3-phenylpropyl)piperidine], the figures for the IC50 in assay [3] and in assay [1] were 0.5 µM and 22 µM, respectively.
The like results for `CCc1nccn1CCC1CCN(CCCc2ccccc2)CC1` [Example 107, 4-[2-(2-Ethylimidazol-1-yl)ethyl]-1-(3-phenylpropyl)piperidine] were, in that order, not above 0.01 µM and 22 µM.
As to `CCCc1nccn1CCC1CCN(CCCc2ccccc2)CC1` [Example 110, 1-(3-Phenylpropyl)-4-[2-(2-propylimidazol-1-yl)ethyl]piperidine], the results for the IC50 in assay [3] and in assay [1] were 0.2 µM and 20 µM, respectively.
Molecule `c1ccc(CCCN2CCC(CCn3cncn3)CC2)cc1` [Example 111, 1-(3-Phenylpropyl)-4-[2-(1H-1,2,4-triazol-1-yl)ethyl]piperidine] returned an IC50 in assay [3] of 7.3 µM. For the same molecule, the minimal effective dose in assay [2] was not above 10 mg/kg.
Regarding `c1ccc(CCCN2CCC(CCn3nccn3)CC2)cc1` [Example 120, 1-(3-Phenylpropyl)-4-[2-(2H-1,2,3-triazol-2-yl)ethyl]piperidine], the IC50 in assay [3] came to 4.2 µM; in assay [1] it was 100 µM.
`c1ccc(CCCN2CCC(CCn3ncnn3)CC2)cc1` [Example 121, 1-(3-Phenylpropyl)-4-[2-(2H-tetrazol-2-yl)ethyl]piperidine] gave a concentration for half-maximal inhibition (IC50) in assay [3] not above 1 µM. In addition, in assay [2], the minimal effective dose was found to be 100 mg/kg.
The like results for `c1ccc2c(c1)CCC(CN1CCC(CCn3ccnc3)CC1)C2` (stereo not shown) [Example 125, 4-[2-(Imidazol-1-yl)ethyl]-1-(1,2,3,4-tetrahydronaphth-2-ylmethyl)piperidine] were, in that order, 2.2 µM and 30 mg/kg.
In assay [3], `CC(CCN1CCC(CCn2ccnc2)CC1)c1ccccc1` (stereo not shown) [Example 126, 4-[2-(Imidazol-1-yl)ethyl]-1-(3-phenylbutyl)piperidine] showed an IC50 of 3.7 µM. In addition, the minimal effective dose in assay [2] was not above 100 mg/kg.
